Results reported in publication PMC12419465, “Photoresponsive molecular tweezers modulate Taspase 1 activity” (RSC Chemical Biology, 2025).
pKd: −log10 of the molar value. Read-outs that look alike come from different tables or passages of the source.

What was measured:
[1] = target: T1, full-length, proteolytically inactive Taspase 1 (Homo sapiens, UniProt Q9H6P5, D233A/T234A); assay: Surface plasmon resonance on immobilized full-length, inactive Taspase 1; assay type: binding; details: for ka / kd: Table S3, n = 2
T1 sequence (Q9H6P5 1-420 D233A/T234A): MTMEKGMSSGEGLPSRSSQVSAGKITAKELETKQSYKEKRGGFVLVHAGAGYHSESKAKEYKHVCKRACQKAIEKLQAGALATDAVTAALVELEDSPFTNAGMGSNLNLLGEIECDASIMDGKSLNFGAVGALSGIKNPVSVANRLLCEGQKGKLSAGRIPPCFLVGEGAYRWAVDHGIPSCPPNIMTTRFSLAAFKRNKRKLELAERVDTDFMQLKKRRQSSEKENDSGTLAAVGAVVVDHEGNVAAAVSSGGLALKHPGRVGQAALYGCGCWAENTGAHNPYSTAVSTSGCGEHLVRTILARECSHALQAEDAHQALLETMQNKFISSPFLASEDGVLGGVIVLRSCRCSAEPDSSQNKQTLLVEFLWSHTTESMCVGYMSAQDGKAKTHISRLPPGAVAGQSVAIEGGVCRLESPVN
Method: SPR measurements were conducted as described.[9,10]
First, we utilized an established surface plasmon resonance (SPR) assay to evaluate the overall binding of our ligands to Taspase 1 (Fig. 3).[10,54] […] High affinities were observed, with KD values in the single micromolar range (Fig. 3, and Table S2).
Fig. 3 Photoswitchable tweezer constructs bind Taspase 1 with SPR binding affinities in the low micromolar range. […] Duplicate measurements were performed, with the respective curves shown in the same colour at different brightness levels (right). […] KD values (Table S2) were determined through kinetic evaluation by fitting the individual curves to a 1 : 1 binding model. Detailed SPR data are provided in the SI (Table S3). Composed with https://BioRender.com. […] No printed text gives the condition. In each entry the first value is the upper row and the second is the lower row.
Supplementary Table S3. Kinetic parameters of photoswitchable tweezer constructs as determined by SPR (see Fig. 3). Values were derived from fitted sensorgrams with a 1:1 two state binding model from n = 2 measurements for the indicated constructs. Analysis was performed using the Trace Drawer software 1.9.2 (TraceDrawer Software, Sweden). […]

[2] = Photoisomerization: photostationary states by 1H NMR, switching cycles by UV-vis; assay type: physicochemical; details: for PSS E→Z, photostationary state: UV 365 nm; for PSS Z→E, photostationary state: green light 520 nm
Method: Tweezer constructs were synthesized as an E/Z mixture, with a strong preference for the thermodynamically stable E isomer. For photoisomerization, UV-vis spectra of TWAAP and TWAB (50 μM in water) were recorded in their initial state. The constructs were then isomerized to the Z isomer with UV light (λ = 365 nm, 1 min) and back to the E isomer with green light (λ = 520 nm, 5 min). Two light sources were used: UV LED HighPower-LED with 3 W of λ = 365 nm (LED Engin Inc., San Jose, California, US) and a LSC-G HighPower-LED with 3 W of λ = 520 nm (Cree Inc., Durham, North Carolina, US). UV-vis spectroscopy was routinely employed to analyze the tweezer constructs, serving as the method of choice to monitor configurational integrity after multiple switching cycles. More than 10 switching cycles were performed without any loss of configurational integrity. The UV-vis spectra were recorded with a JASCO V-650 double-beam spectrophotometer (JASCO).
The photophysical properties of AAP tweezers TWAAP0-4 as well as those of AZO tweezers TWAB1-2 were consistent with previous reports on these photoswitches. […] The two isomers are easily distinguished by the significant difference in their absorption bands (Fig. 2 and Fig. S4a, b). […] Irradiation with green light further increases the concentration of the E isomer, as confirmed by both UV/vis and NMR spectra. The switching process can be repeated for over 10 cycles without loss of configurational integrity or photodegradation of the tweezer. […] (Fig. 2 and Table S1).
Supplementary Table S1. Photostationary states (PSSE→Z and PSSZ→E) and half-life of Z isomers of
respectively. n.d., not determinable.
TW construct PSSE→Z [%] PSSZ→E [%] […]

[3] = target: T2, Cy5-labeled Taspase 1 loop (Homo sapiens, UniProt Q9H6P5); assay: Fluorescence titration of Cy5-labeled Taspase 1 loop; assay type: binding; details: for pKd: 1:1 binding model, n = 3, read-out: KD TW (fluorescence titration, loop)
T2 construct: Cy5-labeled NLS-bearing loop peptide (aa S181-D233); purchased GeneCust; host or cells: synthetic peptide
T2 sequence (Q9H6P5 181-233): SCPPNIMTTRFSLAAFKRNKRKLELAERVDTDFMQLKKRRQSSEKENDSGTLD
Method: Fluorescence titration was conducted with a Taspase 1 loop with an N-terminal […] synthesized by GeneCust (Sequence: Cy5-[…]; NLS in bold) as described.[9,10] The fluorescence anisotropy assay was modified based on previously established protocols.[51] Measurements were conducted using an FP-8300 JASCO fluorescence spectrometer (JASCO GmbH). […] Binding curves of the average data were fitted with GraphPad Prism 10.4 (GraphPad) using the quadratic binding equation for one-site specific binding model: [drawing 4] with r = anisotropy, r0 = anisotropy without protein, rmax = maximum anisotropy, F = fluorescent probe (Cy5-labeled peptide) concentration, x = titrant concentration, KD = dissociation constant. All fitting curves have R^2-values between 0.88 and 0.98.
Since Importin binding critically depends on the basic NLS clusters within the Taspase 1 loop, pull-down assays typically provide a reliable readout for tweezer interaction with the relevant lysine and arginine residues. Alternatively, loop binding can be evaluated through ligand titration experiments using a fluorescently labeled Taspase 1 loop (Fig. 5).[10] […] As a result, potential effects related to the orientation of the flexible loop within the context of the globular protein are not captured. Of note, the slight increase in signal at the highest compound concentration likely reflects non-specific effects such as weak autofluorescence, inner filter artifacts, or molecular crowding, highlighting limitations of the assay at this range. Despite these effects, the data points were retained to provide a complete representation of the assay response.
Fig. 5 TWAAP ligands directly address the Taspase 1 loop. Fluorescence titrations were performed using a Cy5-labeled Taspase 1 loop and switchable tweezers. […] Fluorescence intensity in solvent-treated samples was set to 100%, with ligand-treated samples normalized to this value. […] As a control, all ligands were added to Cy5 (without peptide) at their highest concentration, resulting in neglectable changes in fluorescence. Data represent the mean ± SD of three independent experiments. Composed with https://Biorender.com.

[4] = E enriched isomer, Table S2, read-out: KD (E)
[5] = E isomer, ligand conc. 0.06 - 25 µM, Table S4, read-out: KD TW (SPR, full-length protein)
[6] = Z enriched isomer, Table S2, read-out: KD (Z)
[7] = Z isomer, ligand conc. 0.06 - 25 µM, Table S4, read-out: KD TW (SPR, full-length protein)

O=P(O)(O)Oc1c2c(c(OP(=O)(O)OCCn3cc(-c4ccc(N=Nc5ccc(-c6cn(CCOP(=O)(O)Oc7c8c(c(OP(=O)(O)O)c9c7C7CC9c9cc%10c(cc97)C7CC%10c9ccccc97)C7CC8c8cc9c(cc87)C7CC9c8ccccc87)nn6)cc5)cc4)nn3)c3c1C1CC3c3cc4c(cc31)C1CC4c3ccccc31)C1CC2c2cc3c(cc21)C1CC3c2ccccc21 [TWAB1]
pKd [1, 4]: 5.03
pKd [1, 5]: 5.03
pKd [1, 6]: 5.04
ka ([1]; isomer E): 596 ± 116 M⁻¹ s⁻¹
kd ([1]; isomer E): 0.000548 ± 2.4e-05 s⁻¹
PSS E→Z, photostationary state [2]: 63%
PSS Z→E, photostationary state [2]: 61%

Cc1nn(-c2ccc(C#Cc3ccc(-c4cn(CCOP(=O)(O)Oc5c6c(c(OP(=O)(O)O)c7c5C5CC7c7cc8c(cc75)C5CC8c7ccccc75)C5CC6c6cc7c(cc65)C5CC7c6ccccc65)nn4)cc3)cc2)c(C)c1N=Nc1ccc(C#Cc2ccc(-c3cn(CCOP(=O)(O)Oc4c5c(c(OP(=O)(O)O)c6c4C4CC6c6cc7c(cc64)C4CC7c6ccccc64)C4CC5c5cc6c(cc54)C4CC6c5ccccc54)nn3)cc2)cc1 [TWAAP4]
pKd ([3]; E isomer): 6.10
Loop binding, in words ([3]; Z isomer): only a weak loop binder
pKd ([3]; Z isomer): 5.31
pKd [1, 4]: 5.54
pKd [1, 6]: 5.71
pKd [1, 7]: 5.70
ka ([1]; isomer E): 4690 ± 1260 M⁻¹ s⁻¹
kd ([1]; isomer E): 0.00918 ± 4.22e-06 s⁻¹
ka ([1]; isomer Z): 3340 ± 688 M⁻¹ s⁻¹
kd ([1]; isomer Z): 0.00967 ± 4.04e-06 s⁻¹
PSS E→Z, photostationary state [2]: 67%
PSS Z→E, photostationary state [2]: 97%

Cc1nn(-c2ccc(-c3cn(CCOP(=O)(O)Oc4c5c(c(OP(=O)(O)O)c6c4C4CC6c6cc7c(cc64)C4CC7c6ccccc64)C4CC5c5cc6c(cc54)C4CC6c5ccccc54)nn3)cc2)c(C)c1N=Nc1ccc(-c2ccc(-c3cn(CCOP(=O)(O)Oc4c5c(c(OP(=O)(O)O)c6c4C4CC6c6cc7c(cc64)C4CC7c6ccccc64)C4CC5c5cc6c(cc54)C4CC6c5ccccc54)nn3)cc2)cc1 [TWAAP3]
pKd ([3]; E isomer): 6.40
pKd ([3]; Z isomer): 6.22
pKd [1, 4]: 5.39
SPR signal ([1]; E isomer): approximately 120 μRIU
association rate constant (ka) ([1]; E isomer): 3.81 × 10^3 M^1 s^1
dissociation rate constant (kd) ([1]; E isomer): 1.53 × 10^−2 s^1
pKd [1, 5]: 5.39
pKd [1, 6]: 5.57
SPR signal ([1]; Z isomer): about 500 μRIU
association rate constant (ka) ([1]; Z isomer): 9.57 × 10^2 M^1 s^1
dissociation rate constant (kd) ([1]; Z isomer): 2.56 × 10^−3 s^1
pKd [1, 7]: 5.57
ka ([1]; isomer E): 957 ± 56.1 M⁻¹ s⁻¹
kd ([1]; isomer E): 0.00256 ± 4.04e-06 s⁻¹
ka ([1]; isomer Z): 3810 ± 2090 M⁻¹ s⁻¹
kd ([1]; isomer Z): 0.0153 ± 2.5e-05 s⁻¹
PSS E→Z, photostationary state [2]: 84%
PSS Z→E, photostationary state [2]: 92%

Cc1nn(-c2ccc(-n3cc(CCOP(=O)(O)Oc4c5c(c(OP(=O)(O)O)c6c4C4CC6c6cc7c(cc64)C4CC7c6ccccc64)C4CC5c5cc6c(cc54)C4CC6c5ccccc54)nn3)cc2)c(C)c1N=Nc1ccc(-n2cc(CCOP(=O)(O)Oc3c4c(c(OP(=O)(O)O)c5c3C3CC5c5cc6c(cc53)C3CC6c5ccccc53)C3CC4c4cc5c(cc43)C3CC5c4ccccc43)nn2)cc1 [TWAAP0]
pKd ([3]; E isomer): 6.70
pKd ([3]; Z isomer): 6.52
pKd [1, 4]: 6.15
SPR signal ([1]; E isomer): approximately 300 μRIU
association rate constant (ka) ([1]; E isomer): 1.04 × 10^3 M^1 s^1
dissociation rate constant (kd) ([1]; E isomer): 0.000743 s⁻¹
pKd [1, 5]: 6.15
pKd [1, 6]: 5.54
SPR signal ([1]; Z isomer): approximately 300 μRIU
association rate constant (ka) ([1]; Z isomer): 1.12 × 10^3 M^1 s^1
dissociation rate constant (kd) ([1]; Z isomer): 0.00322 s⁻¹
pKd [1, 7]: 5.54
ka ([1]; isomer E): 1120 ± 34 M⁻¹ s⁻¹
kd ([1]; isomer E): 0.00322 ± 7.17e-07 s⁻¹
ka ([1]; isomer Z): 1040 ± 20.5 M⁻¹ s⁻¹
PSS E→Z, photostationary state [2]: 87%
PSS Z→E, photostationary state [2]: 89%

Cc1nn(Cc2cn(CCOP(=O)(O)Oc3c4c(c(OP(=O)(O)O)c5c3C3CC5c5cc6c(cc53)C3CC6c5ccccc53)C3CC4c4cc5c(cc43)C3CC5c4ccccc43)nn2)c(C)c1N=Nc1ccc(-c2cn(CCOP(=O)(O)Oc3c4c(c(OP(=O)(O)O)c5c3C3CC5c5cc6c(cc53)C3CC6c5ccccc53)C3CC4c4cc5c(cc43)C3CC5c4ccccc43)nn2)cc1 [TWAAP2]
pKd ([3]; E isomer): 6.52
pKd ([3]; Z isomer): 6.52
pKd [1, 4]: 5.25
pKd [1, 5]: 5.24
pKd [1, 6]: 5.37
pKd [1, 7]: 5.37
ka ([1]; isomer E): 1170 ± 96.4 M⁻¹ s⁻¹
kd ([1]; isomer E): 0.00501 ± 9.88e-07 s⁻¹
ka ([1]; isomer Z): 750 ± 76.2 M⁻¹ s⁻¹
kd ([1]; isomer Z): 0.00426 ± 1.03e-06 s⁻¹
PSS E→Z, photostationary state [2]: 94%
PSS Z→E, photostationary state [2]: 77%
